Reference: patent US9126969B2, “Pyrazolylbenzimidazole derivatives, compositions containing them and use thereof” (AVENTIS PHARMA S.A., priority 2006, dated 2015)
pIC50: −log10 of the molar value. Counter-ions that a name gives are not always drawn. Like-named read-outs stand apart in the source and are kept apart here.

Key:
[1] = tested on: HeLa cells (tumor cell line); experiment: FDA-PI viability/proliferation assay on HeLa tumor cells; assay type: cell-based; details: for pIC50: Homo sapiens; for ratio: PBL viability IC50 / HeLa viability IC50
Method: (§1) The compounds were tested in a viability/proliferation assay for comparing, under similar conditions, their activity on proliferating tumor cells and on quiescent normal cells.
(§2) The HeLa cells (tumor cell line) and the PBLs (quiescent cells, peripheral blood lymphocytes) originate, respectively, from the ATCC and from Cambrex.
(§3) The HeLa cells (tumor cell line) are seeded at 0.25×10^6 cells/well in 2 mL of culture medium. The products are added 24 h after seeding. After incubation for 48 h in the presence of the products, all the HeLa cells (supernatant and adherent cells) are recovered, centrifuged and taken up in PBS containing a final concentration of 0.25 μg/mL of fluorescein diacetate (FDA), 10 μg/mL of propidium iodide (PI) and 3 μL/mL of 10 μm beads. The cell suspensions are filtered immediately before analysis on the Facscalibur. The PBLs are seeded at 10^6 cells/well in 2 mL of culture medium. The products are added 1-4 h after seeding. After incubation for 48 h in the presence of the products, half the cell suspension is recovered and incubated in the presence of a final concentration of 0.25 μg/mL of fluorescein diacetate (FDA), 10 μg/mL of propidium iodide (PI) and 2 μL/mL of 10 μm beads.
(§4) The FDA which enters the cells is cleaved by esterases only in live cells, releasing the fluorescein which emits a fluorescent radiation in the green range when it is excited (generally by UV radiation). The PI enters only the dead cells, the membrane of which is permeabilized, and emits a fluorescent radiation in the red range when it is excited. The beads are used as tracers for the dead cells having already disappeared at the time of reading.
(§5) Calculation: The % of viable cells relative to the nontreated control is given by: (number of live cells/number of live cells in the control)/(number of beads/number of beads in the control)×100 for the HeLa cells, and by: (number of live cells/number of live cells in the control)×100 for the quiescent PBLs. The products according to the invention are tested at several concentrations and an IC50, corresponding to the concentration which causes 50% of the maximum inhibition, is calculated.

[2] = tested on: PBLs (quiescent cells, peripheral blood lymphocytes); experiment: FDA-PI viability assay on quiescent PBLs; assay type: cell-based; details: Lymphocyte, 48 h incubation, read-out: Viability PBL IC50
Method: as §1, §2, §3, §4, §5

[3] = HeLa, read-out: IC50 values on the tumor cells
[4] = HeLa cells, 48 h incubation, read-out: Viability HeLa IC50

Row | SMILES | pIC50 [1, 3] | pIC50 [1, 4] | ratio [1] | pIC50 [2]
1 | CCN(CC)C(=O)Nc1c[nH]nc1-c1nc2cc(F)c(OCCN3CCCCC3)cc2[nH]1 [Example 4, 1,1-diethyl-3-{3-[5-fluoro-6-(2-piperidin-1-ylethoxy)-1H-benzimidazol-2-yl]-1H-pyrazol-4-yl}urea Trifluoroacetate] | > 7.00 | – | – | –
2 | Cl.O=C(Nc1c[nH]nc1-c1nc2cc(F)c(N3CCOCC3)cc2[nH]1)N1CCCCC1 [Example 1, N-[3-(5-fluoro-6-morpholin-4-yl-1H-benzimidazol-2-yl)-1H-pyrazol-4-yl]piperidine-1-carboxamide Hydrochloride] | – | 6.97 | 70 | 5.12
3 | CCN(CC)C(=O)Nc1c[nH]nc1-c1nc2cc(F)c(OCCCN3CCCCC3)cc2[nH]1 [Example 6, 1,1-diethyl-3-{3-[5-fluoro-6-(3-piperidin-1-ylpropoxy)-1H-benzimidazol-2-yl]-1H-pyrazol-4-yl}urea Hydrochloride] | > 7.00 | – | – | –
4 | CC(C)N(C(=O)Nc1c[nH]nc1-c1nc2cc(F)c(N3CCCOCC3)cc2[nH]1)C(C)C [Example 8, 3-[3-(5-fluoro-6-perhydro-1,4-oxazepan-4-yl-1H-benzimidazol-2-yl)-1H-pyrazol-4-yl]-1,1-diisopropylurea] | > 7.00 | – | – | –
5 | CCN(CC)C(=O)Nc1c[nH]nc1-c1nc2cc(F)c(N3CCN(C)CC3)cc2[nH]1 [Example 13, 1,1-diethyl-3-{3-[5-fluoro-6-(4-methylpiperazin-1-yl)-1H-benzimidazol-2-yl]-1H-pyrazol-4-yl}urea] | > 7.00 | – | – | –
6 | CCN(CC)C(=O)Nc1c[nH]nc1-c1nc2cc(F)c(OCCCN(C)C)cc2[nH]1 [Example 5, 3-{3-[6-(3-dimethylaminopropoxy)-5-fluoro-1H-benzimidazol-2-yl]-1H-pyrazol-4-yl}-1,1-diethylurea Trifluoroacetate] | > 7.00 | – | – | –
7 | CN1CCN(c2cc3[nH]c(-c4n[nH]cc4NC(=O)N4CCCCC4)nc3cc2F)CC1.O=C(O)C(F)(F)F [Example 12, N-{3-[5-fluoro-6-(4-methylpiperazin-1-yl)-1H-benzimidazol-2-yl]-1H-pyrazol-4-yl}piperidine-1-carboxamide Trifluoroacetate] | – | 7.25 | 62 | 5.46
8 | CCN(CC)C(=O)Nc1c[nH]nc1-c1nc2cc(F)c(N3CCOCC3)cc2[nH]1 [Example 2, 1,1-diethyl-3-[3-(5-fluoro-6-morpholin-4-yl-1H-benzimidazol-2-yl)-1H-pyrazol-4-yl]urea Trifluoroacetate] | > 7.00 | – | – | –
9 | CCN(CC)C(=O)Nc1c[nH]nc1-c1nc2cc(F)c(N3CCCOCC3)cc2[nH]1 [Example 11, 1,1-diethyl-3[3-(5-fluoro-6-perhydro-1,4-oxazepin-4-yl-1H-benzimidazol-2-yl)-1H-pyrazol-4-yl]urea] | > 7.00 | – | – | –
10 | CCN(CC)C(=O)Nc1c[nH]nc1-c1nc2cc(OCCCCN3CCCCC3)c(F)cc2[nH]1 [Example 9, 1,1-diethyl-3-{3-[6-fluoro-5-(4-piperidin-1-ylbutoxy)-1H-benzimidazol-2-yl]-1H-pyrazol-4-yl}urea Trifluoroacetate] | > 7.00 | – | – | –

Now from value to compound, other results behind:

Row | pIC50 [1, 3] | pIC50 [1, 4] | SMILES | ratio [1] | pIC50 [2]
11 | > 7.00 | – | CC(C)N(C(=O)Nc1c[nH]nc1-c1nc2cc(F)c(N3CCN(C)CC3)cc2[nH]1)C(C)C [Example 39, 3-{3-[5-Fluoro-6-(4-methylpiperazin-1-yl)-1H-benzimidazol-2-yl]-1H-pyrazol-4-yl}-1,1-diisopropylurea trifluoroacetate] | – | –
12 | – | 7.41 | CCN(CC)C(=O)Nc1c[nH]nc1-c1nc2cc(F)c(N3CCCN(C)CC3)cc2[nH]1 [Example 18, 1,1-diethyl-3-{3-[5-fluoro-6-(4-methylperhydro-1,4-diazepin-1-yl)-1H-benzimidazol-2-yl]-1H-pyrazol-4-yl}urea] | 96 | 5.42
13 | > 7.00 | – | CCN(C(=O)Nc1c[nH]nc1-c1nc2ccc(N3CCN(C)CC3)cc2[nH]1)C(C)C [Example 37, 1-Ethyl-1-isopropyl-3-{3-[6-(4-methylpiperazin-1-yl)-1H-benzimidazol-2-yl]-1H-pyrazol-4-yl}urea] | – | –
14 | – | 7.07 | O=C(Nc1c[nH]nc1-c1nc2cc(F)c(N3CCCOCC3)cc2[nH]1)N1CCCCC1 [Example 38] | 108 | 5.04
15 | > 7.00 | – | CN1CCN(c2ccc3nc(-c4n[nH]cc4NC(=O)N4CCCCC4)[nH]c3c2)CC1 [Example 20, N-{3-[6-(4-methylpiperazin-1-yl)-1H-benzimidazol-2-yl]-1H-pyrazol-4-yl}piperidine-1-carboxamide] | – | –
16 | > 7.00 | – | CCN(CC)C(=O)Nc1c[nH]nc1-c1nc2ccc(N3CCN(C)CC3)cc2[nH]1 [Example 19, 1,1-diethyl-3-{3-[6-(4-methylpiperazin-1-yl)-1H-benzimidazol-2-yl]-1H-pyrazol-4-yl}urea] | – | –
17 | > 7.00 | – | CC(C)N(C(=O)Nc1c[nH]nc1-c1nc2ccc(N3CCN(C)CC3)cc2[nH]1)C(C)C [Example 34, 1,1-Diisopropyl-3-{3-[6-(4-methylpiperazin-1-yl)-1H-benzimidazol-2-yl]-1H-pyrazol-4-yl}urea] | – | –
18 | – | 7.00 | CN1CCCN(c2cc3[nH]c(-c4n[nH]cc4NC(=O)N4CCCCC4)nc3cc2F)CC1.O=C(O)C(F)(F)F [Example 17, N-{3-[5-fluoro-6-(4-methylperhydro-1,4-diazepin-1-yl)-1H-benzimidazol-2-yl]-1H-pyrazol-4-yl}-piperidine-1-carboxamide Trifluoroacetate] | 42 | 5.37
19 | > 7.00 | – | CC(C)N(C(=O)Nc1c[nH]nc1-c1nc2cc(F)c(N3CCCN(C)CC3)cc2[nH]1)C(C)C [Example 40, 3-{3-[5-Fluoro-6-(4-methylperhydro-1,4-diazepin-1-yl)-1H-benzimidazol-2-yl]-1H-pyrazol-4-yl}-1,1-diisopropylurea] | – | –
20 | > 7.00 | – | CCN(CC)C(=O)Nc1c[nH]nc1-c1nc2cc(F)c(NCCN(C)C)cc2[nH]1 [Example 15, 3-{3-[6-(2-dimethylaminoethylamino)-5-fluoro-1H-benzimidazol-2-yl]-1H-pyrazol-4-yl}-1,1-diethylurea Trifluoroacetate] | – | –
21 | > 7.00 | – | CCN(C(=O)Nc1c[nH]nc1-c1nc2cc(F)c(OCCCN(C)C)cc2[nH]1)C(C)C [Example 33, 3-{3-[6-(3-dimethylaminopropoxy)-5-fluoro-1H-benzimidazol-2-yl]-1H-pyrazol-4-yl}-1-ethyl-1-isopropylurea] | – | –
22 | 4.52 to 5.30 | – | CN(C)CCCOc1cc2[nH]c(-c3n[nH]cc3NC(=O)N3CCNCC3)nc2cc1F [Example 31, N-{3-[6-(3-Dimethylaminopropoxy)-5-fluoro-1H-benzimidazol-2-yl]-1H-pyrazol-4-yl}piperazine-1-carboxamide] | – | –
23 | > 7.00 | – | CC(C)N(C(=O)Nc1c[nH]nc1-c1nc2cc(F)c(N3CCOCC3)cc2[nH]1)C(C)C [Example 16, 3-[3-(5-fluoro-6-morpholin-4-yl-1H-benzimidazol-2-yl)-1H-pyrazol-4-yl]-1,1-diisopropylurea] | – | –
